From patent publication US20110143332A1, “METHOD FOR IDENTIFYING MICROORGANISM OR DETECTING ITS MORPHOLOGY ALTERATION USING SURFACE ENHANCED RAMAN SCATTERING (SERS)” (NATIONAL YANG-MING UNIVERSITY, priority 2007, published 2011)
“Also recorded” adds a separate entry of the source. Bridge positions count the residues as written; N and C are the ends. Square brackets hold non-standard residues; d marks the D form. Peptide text beside a SMILES is read from it. * marks the point of attachment. Ileψ(thiazoline)Cys = CC[C@H](C)[C@H](N)C1=N[C@H](C(=O)*)CS1; dOrn = NCCC[C@@H](N)C(=O)O

Tests used:
Format in all cases: cell-based
[1] = system: Enterococcus faecalis 7-18 uE; test: SERS monitoring of antibiotic effect on drug-resistant strain; conditions: 0.5% agarose gel, FIG. 11
Protocol: (§1) Fourteen laboratory strains, Escherichia coli JM109, Escherichia coli JM109(mutant), Enterococcus faecalis 7-18 uE, Enterococcus faecium 13631, Staphylococcus aureus 13649, Staphylococcus aureus 13615, Streptococcus agalactiae 13640, Enterococcus faecalis 13641 C2, Klebsiella pneumoniae 13641 C1, Proteus mirabilis 13621 C1, Enterobacter cloacae 13457 C2, E. coli 13594 C1, E. coli 13650, Escherichia coli JM109(mutant) and E. coli 13634 were analyzed. Bacteria were grown in 5 mL of LB broth (˜6 h) to OD600=˜0.5, washed five times with PBS, and resuspended in 0.1 ml of PBS. About 3˜5 μl of the bacteria suspension is placed on the Ag/AAO substrate. 0.5% agarose gel was used to mount the bacterial samples for inhibiting the movement of bacteria. Five antibiotics: ampicillin, bacitracin, vancomycin, tetracycline and gentamycin were used in the examples. The former three could interfere with construction of the bacterial cell wall. The last two inhibited the protein synthesis in bacteria via disrupting the binding between tRNA and ribosome.
(§2) A Jobin Yvon Raman microscope (model LabRAM HR800) was used to observe the scattering excited by a 632.8 nm He—Ne laser. The spectral data acquisition time was in the 1-10 s range and the SERS spectra were obtained with a 100× microscope objective for excitation/collection. […]

[2] = system: Escherichia coli JM109(mutant); test: SERS monitoring of antibiotic effect on bacteria mounted on Ag/AAO substrate; conditions: 25 μg/ml bacitracin for 48 min; antibiotic susceptible strain; 0.5% agarose gel; FIG. 6
Protocol: as §1, §2

E. coli 13650 = test: as above; conditions: 25 μg/ml gentamycin for 37 min; antibiotic susceptible strain; 0.5% agarose gel; FIG. 10
Protocol: as §1, §2

Escherichia coli JM109 = test: as above; conditions: 10 μg/ml ampicillin for 35 min; antibiotic susceptible strain; 0.5% agarose gel; FIG. 5
Protocol: as §1, §2

CC[C@H](C)[C@H](N)C1=N[C@H](C(=O)N[C@@H](CC(C)C)C(=O)N[C@H](CCC(=O)O)C(=O)N[C@H](C(=O)N[C@H]2CCCCNC(=O)[C@H](CC(N)=O)NC(=O)[C@@H](CC(=O)O)NC(=O)[C@H](Cc3cnc[nH]3)NC(=O)[C@@H](Cc3ccccc3)NC(=O)[C@H]([C@@H](C)CC)NC(=O)[C@@H](CCCN)NC2=O)[C@@H](C)CC)CS1 [bacitracin] ({Ileψ(thiazoline)Cys}-L[dE]IK[dOrn]I[dF]H[dD]N; lactam 4-C)
change of SERS spectrum (in words) ([1]; 25 μg/ml bacitracin for 48 min): No spectral changes were observed; also recorded: no changes in the spectra were observed | new peak in SERS spectrum compared with no treatment [2]: 700 cm⁻¹

gentamycin
new peaks in SERS spectrum (E. coli 13650): 418 cm⁻¹

CC1(C)S[C@@H]2[C@H](NC(=O)[C@H](N)c3ccccc3)C(=O)N2[C@H]1C(=O)O [ampicillin]
new peak in SERS spectrum compared with no treatment (Escherichia coli JM109): 700 cm⁻¹ | change of SERS spectrum (in words) ([1]; 10 μg/ml ampicillin for 35 min): No spectral changes were observed; also recorded: no changes in the spectra were observed
